How the values were obtained:
Type in all cases: functional
DMS-273 = assay: Antitumor activity against human DMS273 cells
[1] = Antitumor activity against human […] cells
U-251 = assay: Antitumor activity against human U251 cells
HOP-62 = assay: Antitumor activity against human HOP62 cells
SF-295 = assay: Antitumor activity against human SF295 cells
RXF 393 = assay: Antitumor activity against human RXF393 cells
CCRF-CEM = assay: Antitumor activity against human CCRF-CEM cells
P388 = assay: Antitumor activity against mouse P388 cells; conditions: for EC50: read-out: ED50 (the source's name)
HL-60 = assay: Antitumor activity against human HL60 cells

`C[C@@H]1[C@]2(O[C@H]3C=C4[C@@H]5CC[C@H]6Cc7nc8c(nc7C[C@]6(C)[C@H]5C[C@@H](O)[C@]4(C)[C@]31O)C[C@@H]1CC[C@H]3C4=C[C@@H]5O[C@]6(CC[C@](C)(O)CO6)C[C@]5(O)[C@@]4(C)[C@H](O)C[C@@H]3[C@@]1(C)C8)O[C@](C)(CO)C[C@H]2O` [CEPHALOSTATIN 7] gave a GI50 (DMS-273) of less than 0.1 nM, a GI50 [1] of less than 0.1 nM and a GI50 (U-251) of less than 0.1 nM. It also gave a GI50 (HOP-62) of less than 0.1 nM, a GI50 (SF-295) of less than 0.1 nM and a GI50 (RXF 393) of less than 0.1 nM. It also gave a GI50 (CCRF-CEM) of less than 0.1 nM, a GI50 (P388) of less than 0.1 nM and a GI50 (HL-60) of less than 0.1 nM.
`C[C@@H]1C[C@]2(O[C@H]3C=C4[C@@H]5CC[C@H]6Cc7nc8c(nc7C[C@]6(C)[C@H]5C[C@@H](O)[C@]4(CO)[C@H]3[C@@H]2C)C[C@@H]2CC[C@H]3C4=C[C@@H]5O[C@]6(O[C@](C)(CO)C[C@H]6O)[C@@H](C)[C@]5(O)[C@@]4(C)[C@H](O)C[C@@H]3[C@@]2(C)C8)OC1(C)C` [CEPHALOSTATIN 8] showed a GI50 (DMS-273) of less than 0.1 nM, a GI50 [1] of less than 0.1 nM and a GI50 (U-251) of less than 0.1 nM. The GI50 (HOP-62) was less than 0.1 nM, the GI50 (SF-295) was less than 0.1 nM and the GI50 (RXF 393) was less than 0.1 nM. For the same compound, the GI50 (CCRF-CEM) was less than 0.1 nM, the GI50 (P388) was less than 0.1 nM and the GI50 (HL-60) was less than 0.1 nM.
Work on `C[C@@H]1[C@H]2CC=C3[C@@H]4CC[C@H]5Cc6nc7c(nc6C[C@]5(C)[C@H]4CC(=O)[C@@]32COC1(O)[C@H](O)CC(C)(C)O)C[C@@H]1CC[C@H]2C3=C[C@@H]4O[C@]5(O[C@](C)(CO)C[C@H]5O)[C@@H](C)[C@]4(O)[C@@]3(C)[C@H](O)C[C@@H]2[C@@]1(C)C7` (stereo not given in full) [CEPHALOSTATIN 9] yielded a GI50 (DMS-273) of less than 0.1 nM, a GI50 [1] of less than 0.1 nM and a GI50 (U-251) of less than 0.1 nM. The GI50 (HOP-62) was less than 0.1 nM, the GI50 (SF-295) was less than 0.1 nM and the GI50 (RXF 393) was less than 0.1 nM. It also gave a GI50 (CCRF-CEM) of less than 0.1 nM, a GI50 (P388) of less than 0.1 nM and a GI50 (HL-60) of less than 0.1 nM.
With `C[C@@H]1[C@@]2(CC[C@](C)(O)CO2)O[C@H]2C=C3[C@@H]4CC[C@H]5Cc6nc7c(nc6C[C@]5(C)[C@H]4C[C@@H](O)[C@]3(C)[C@]21O)C[C@@H]1CC[C@H]2C3=C[C@@H]4O[C@@]5(CC[C@](C)(O)CO5)[C@@H](C)[C@@H]4[C@@]3(C)[C@H](O)C[C@@H]2[C@@]1(C)C7` [RITTERAZINE M] the EC50 (P388) was 16.7 nM.
Work on `C[C@H]1[C@H]2[C@H](C[C@]3(C(=O)C[C@@H]4[C@H]3CC[C@H]3Cc5nc6c(nc5C[C@@]34C)C[C@@H]3CC[C@@H]4[C@H](CC(=O)[C@]45C[C@@H]4O[C@@]7(CCC(C)(C)O7)[C@@H](C)[C@@H]4[C@]5(C)O)[C@@]3(C)C6)[C@@]2(C)O)O[C@@]12CCC(C)(C)O2` [RITTERAZINE N] yielded an EC50 (P388) of 522 nM.
`C[C@H]1[C@H]2[C@H](C[C@]3(C(=O)C[C@@H]4[C@H]3CC[C@H]3Cc5nc6c(nc5C[C@@]34C)C[C@@H]3CC[C@@H]4[C@H](CC(=O)[C@]45C[C@@H]4O[C@@]7(CCC(C)(C)O7)[C@@H](C)[C@@H]4[C@]5(C)O)[C@@]3(C)C6)[C@@]2(C)O)O[C@]12CCC(C)(C)O2` [RITTERAZINE O] gave an EC50 (P388) of 2380 nM.
`C[C@H]1[C@H]2[C@H](C[C@@H]3[C@@H]4CC[C@H]5Cc6nc7c(nc6C[C@]5(C)[C@H]4C[C@@H](O)[C@]23C)C[C@@H]2CC[C@@H]3[C@@H](CC(=O)[C@]34C[C@@H]3O[C@@]5(CCC(C)(C)O5)[C@@H](C)[C@@H]3[C@]4(C)O)[C@@]2(C)C7)O[C@@]12CCC(C)(C)O2` [RITTERAZINE P] gave an EC50 (P388) of 819 nM.
In the case of `C[C@H]1[C@H]2[C@H](C[C@@H]3[C@@H]4CC[C@H]5Cc6nc7c(nc6C[C@]5(C)[C@H]4C[C@@H](O)[C@]23C)C[C@@H]2CC[C@@H]3[C@@H](CC(=O)[C@]34C[C@@H]3O[C@]5(CCC(C)(C)O5)[C@@H](C)[C@@H]3[C@]4(C)O)[C@@]2(C)C7)O[C@@]12CCC(C)(C)O2` [RITTERAZINE Q], the EC50 (P388) is reported as 657 nM.
With `C[C@H]1[C@H]2[C@H](C[C@@H]3[C@@H]4CC[C@H]5Cc6nc7c(nc6C[C@]5(C)[C@@H]4C[C@@H](O)[C@]23C)C[C@@H]2CC[C@H]3[C@H]4C[C@@H]5O[C@@]6(CCC(C)(C)O6)[C@@H](C)[C@@H]5[C@@]4(C)[C@H](O)C[C@@H]3[C@@]2(C)C7)O[C@@]12CCC(C)(C)O2` [RITTERAZINE R] the EC50 (P388) was 2460 nM.
In the case of `C[C@H]1[C@H]2[C@H](C[C@@H]3[C@@H]4CC[C@H]5Cc6nc7c(nc6C[C@]5(C)[C@@H]4C[C@@H](O)[C@]23C)C[C@@H]2CC[C@H]3[C@H]4C[C@@H]5O[C@@]6(CCC(C)(C)O6)[C@@H](C)[C@@H]5[C@@]4(C)[C@H](O)C[C@@H]3[C@@]2(C)C7)O[C@]12CCC(C)(C)O2` [RITTERAZINE S], the EC50 (P388) is reported as 539 nM.
`C[C@H]1[C@H]2[C@H](C=C3[C@@H]4CC[C@H]5Cc6nc7c(nc6C[C@]5(C)[C@@H]4C[C@@H](O)[C@@]32C)C[C@@H]2CC[C@@H]3[C@H](CC(=O)[C@]34C[C@@H]3O[C@@]5(CCC(C)(C)O5)[C@@H](C)[C@@H]3[C@]4(C)O)[C@@]2(C)C7)O[C@]12CC[C@](C)(O)CO2` [RITTERAZINE T] gave an EC50 (P388) of 522 nM.
Work on `C[C@H]1[C@H]2[C@H](C[C@]3(C(=O)C[C@H]4[C@H]3CC[C@H]3Cc5nc6c(nc5C[C@@]34C)C[C@@H]3CC[C@@H]4[C@@H](CC(=O)[C@]5(C)[C@@H]7[C@H](C[C@]45O)O[C@]4(CC[C@](C)(O)CO4)[C@H]7C)[C@@]3(C)C6)[C@@]2(C)O)O[C@@]12CCC(C)(C)O2` [RITTERAZINE U] yielded an EC50 (P388) of 2340 nM.
Compound `C[C@H]1[C@H]2[C@H](C=C3[C@@H]4CC[C@H]5Cc6nc7c(nc6C[C@]5(C)[C@@H]4C[C@@H](O)[C@@]32C)C[C@@H]2CC[C@@H]3[C@H](CC(=O)[C@]34C[C@@H]3O[C@@]5(CCC(C)(C)O5)[C@@H](C)[C@@H]3[C@]4(C)O)[C@@]2(C)C7)O[C@]12C[C@](C)(CO)CO2` [RITTERAZINE W] has an EC50 (P388) of 3630 nM.
Compound `C[C@H]1[C@H]2[C@H](C=C3[C@@H]4CC[C@H]5Cc6nc7c(nc6C[C@]5(C)[C@@H]4C[C@@H](O)[C@@]32C)C[C@@H]2CC[C@@H]3[C@H](CC(=O)[C@]34C[C@@H]3O[C@]5(CCC(C)(C)O5)[C@@H](C)[C@@H]3[C@]4(C)O)[C@@]2(C)C7)O[C@]12C[C@](C)(CO)CO2` [RITTERAZINE X] has an EC50 (P388) of 3400 nM.
Work on `C[C@H]1[C@H]2[C@H](C=C3[C@@H]4CC[C@H]5Cc6nc7c(nc6C[C@]5(C)[C@@H]4C[C@@H](O)[C@@]32C)C[C@@H]2CC[C@H]3[C@H]4C[C@@H]5O[C@@]6(CCC(C)(C)O6)[C@@H](C)[C@@H]5[C@@]4(C)[C@H](O)C[C@@H]3[C@@]2(C)C7)O[C@]12CC[C@](C)(O)CO2` [RITTERAZINE Y] yielded an EC50 (P388) of 4 nM.
`C[C@@H]1[C@H](C)[C@]2(OC[C@]34C(=O)C[C@@H]5[C@@H](CC[C@H]6Cc7nc8c(nc7C[C@@]65C)C[C@@H]5CC[C@@H]6[C@H](CC(=O)[C@]67C[C@@H]6O[C@@]9(CCC(C)(C)O9)[C@@H](C)[C@@H]6[C@]7(C)O)[C@@]5(C)C8)[C@H]3C[C@H](O)[C@@H]4[C@H]2C)OC1(C)C` [RITTERAZINE Z] gave an EC50 (P388) of 2200 nM.
